“Also recorded” adds a separate entry of the source.
Key:
[1] = test system: HCC1143 (ER− cell line); test: RT-CES cell proliferation assay, HCC1143; assay type: cell-based, human
Procedure: (§1) Unless otherwise indicated, cell proliferation assays described in Examples 2-5 were performed using a Real-Time Cell Electronic Sensing (RT-CES™ 96X) instrument from ACEA Bioscience (San Diego, Calif.). This instrument utilizes an electronic readout (impedance) to non-invasively quantify adherent cell proliferation and viability in real time.
(§2) Cells were seeded in 96-well microtiter plates containing microelectronic sensor arrays (96E plates; ACEA). Cells were maintained in RPMI 1640 (Invitrogen, Carlsbad, Calif.) supplemented with 10% fetal bovine serum (FBS) (Hyclone, Logan, Utah) and were cultured at 37° C. in a humidified atmosphere containing 5% CO2. For proliferation assays, cells were seeded (20,000 cells/well), allowed to attach and grown overnight in standard growth medium. Cells were then serum-starved for 8 hours prior to the proliferation assay in presence or absence of test compound(s). The proliferation response was continuously monitored by measuring the impedance change in each well for the indicated number of hours. Data are expressed as cell index (CI) change relative to time in culture, reflecting measured changes in electrical impedance. Each value shown is an average of 6 wells.
(§3) T47D (American Type Culture Collection, Manassas, Va. (ATCC) cat. HTB-133) is an ER+ cell line derived from human mammary gland ductal carcinoma Other ER+ cell lines used in studies reported herein include ZR-75 and HCC70. HCC1143 (ATCC cat. CRL-2321) is an ER− cell line also derived from human mammary gland ductal carcinoma.
(§4) Following the 8 hour starvation phase, either Ang II (Sigma-Aldrich), 500 nM, or vehicle control was added to the cell culture. […] Ang II also stimulated proliferation of ER+ cell lines HCC70, by approximately 30%, and ZR-75, by approximately 35%, relative to vehicle control (data not shown).

[2] = test system: T47D (ER+ cell line); test: RT-CES cell proliferation assay, T47D; assay type: cell-based, human
Procedure: as §1, §2, §3, §4

[3] = test system: T47D xenografts; test: Growth of ER+ breast cancer cell line xenografts in NODscid mice; assay type: in vivo; settings: 3-5 weeks, female NODscid mice
Procedure: Female NODscid mice of age 5-6 weeks received a subcutaneous estrogen pellet implant (1.7 mg). Twenty four hours after estrogen pellet implantation, the mice received tumor implantation by subcutaneous injection of T47D cells to the flank (approximately 2.5×10^6 cells/mouse). The mice were ear-notched for identification and housed 4 animals per cage. […] Tumors were measured 3 times weekly using digital calipers. Body weight was measured twice weekly. Clinical observations were conducted weekly.

[4] = test system: invasive breast cancer; settings: administered for 5 years; women having risk factors; cited from earlier work
[5] = test system: ZR-75; test: RT-CES cell proliferation assay, ZR-75; assay type: cell-based, human
Procedure: as §1
as §2, with “wells. […]” for “wells.”

[6] = test system: cells cultured from invasive ductal carcinomas; settings: cells positive for ER and PR, cited from earlier work
[7] = test system: HCC1937; test: RT-CES cell proliferation assay, HCC1937; assay type: cell-based, human
Procedure: as §1
as §2, with “wells. […]” for “wells.”

[8] = test system: HCC1395; test: RT-CES cell proliferation assay, HCC1395; assay type: cell-based, human
Procedure: as §1
as §2, with “wells. […]” for “wells.”

[9] = test system: HCC38; test: RT-CES cell proliferation assay, HCC38; assay type: cell-based, human
Procedure: as §1
as §2, with “wells. […]” for “wells.”

[10] = test system: HCC1954; test: RT-CES cell proliferation assay, HCC1954; assay type: cell-based, human
Procedure: as §1
as §2, with “wells. […]” for “wells.”

[11] = test system: T47D; settings: cited from earlier work
[12] = test system: HCC70; test: RT-CES cell proliferation assay, HCC70; assay type: cell-based, human
Procedure: as §1
as §2, with “wells. […]” for “wells.”

[13] = test system: MCF-7; settings: cited from earlier work
[14] = test system: T47D (ER+, PR+); settings: T47D cells; cited from earlier work

## CCCc1nc2c(C)cc(-c3nc4ccccc4n3C)cc2n1Cc1ccc(-c2ccccc2C(=O)O)cc1 [telmisartan]
[1]; HCC1143, telmisartan 1.25 μM or 5 μM + Ang II 500 nM
  effect on cell proliferation: No effects
[2]; T47D, telmisartan 1.25 μM or 5 μM + Ang II 500 nM
  inhibition of Ang II-induced growth: significantly inhibited Ang II-induced growth

## CC/C(=C(\c1ccccc1)c1ccc(OCCN(C)C)cc1)c1ccccc1 [tamoxifen]
[3]; tamoxifen 0.1, 0.3, 1.0 mg/kg p.o. once daily
  growth in tumor volume: reduced in a dose-dependent fashion
[4]
  reduction of incidence of invasive breast cancer: ~50%
[2]; T47D, tamoxifen 7.5 μM + Ang II 500 nM
  effect on Ang II-induced cell proliferation: reduced cell proliferation to a level lower than that of vehicle control

## Ang II: peptide angiotensin II, a major regulator of blood pressure and cardiovascular homeostasis; from Sigma-Aldrich (DRVYIHPF; Angiotensin-2; UniProt P01019 25-32, looked up)
[5]; ZR-75
  Ang II proliferation response: positive
[5]; ZR-75 (ER+), Ang II, data not shown
  stimulation of proliferation relative to vehicle control: approximately 35%
[6]; Ang II
  proliferation of cultured cells: stimulated in a dose-dependent manner
[1]; HCC1143
  Ang II proliferation response: negative
[1]; HCC1143 (ER−), Ang II 500 nM vs vehicle control
  effect of Ang II on growth / cell proliferation: No effects
[7]
  Ang II proliferation response: negative
[8]
  Ang II proliferation response: negative
[9]
  Ang II proliferation response: negative
[10]
  Ang II proliferation response: negative
[11]
  stimulation of cell growth by Ang II: significant stimulation of cell growth
[12]; HCC70
  Ang II proliferation response: positive
[12]; HCC70 (ER+), Ang II, data not shown
  stimulation of proliferation relative to vehicle control: approximately 30%
[13]
  proliferative effect: dose-dependent proliferative effect
[2]; T47D
  Ang II proliferation response: positive
[2]; T47D (ER+), Ang II 500 nM vs vehicle control, after 8 h serum starvation
  effect of Ang II on growth / cell proliferation: significantly stimulated growth; also recorded: substantial increase in cell proliferation

## C[C@H](CS)C(=O)N1CCC[C@H]1C(=O)O [Captopril, (2S)-1-((2S)-2-methyl-3-sulfanylpropanoyl)pyrrolidine-2-carboxylic acid]
[14]
  ER protein concentration: reduced ER
  PR protein concentration: increased PR
  [3H]thymidine incorporation (an index of cell proliferation): inhibited [3H]thymidine incorporation

## CCCCC1=NC2(CCCC2)C(=O)N1Cc1ccc(-c2ccccc2-c2nnn[nH]2)cc1 [irbesartan]
[1]; HCC1143, AT1 receptor antagonist 5 μM + Ang II 500 nM, data not shown
  effect on cell proliferation: No effects
[3]; irbesartan 30, 100, 300 mg/kg p.o. once daily
  growth in tumor volume: lowest dose tested (30 mg/kg) appeared to give the greatest effect
[2]; T47D, AT1 receptor antagonist 5 μM + Ang II 500 nM
  inhibition of Ang II-induced growth / cell proliferation: significantly inhibited Ang II-induced growth; also recorded: reversed the Ang II effect

## CCCCc1nc(Cl)c(CO)n1Cc1ccc(-c2ccccc2-c2nn[nH]n2)cc1 [losartan]
[6]
  effect on Ang II-stimulated proliferation: blocked

## CCOc1nc2cccc(C(=O)OC(C)OC(=O)OC3CCCCC3)c2n1Cc1ccc(-c2ccccc2-c2nnn[nH]2)cc1 (stereo not shown) [candesartan cilexetil]
[3]; candesartan cilexetil 10, 30, 100 mg/kg p.o. once daily
  growth in tumor volume: reduced in a dose-dependent fashion

## NCCCCC(NC(CCc1ccccc1)C(=O)O)C(=O)N1CCCC1C(=O)O.O.O (stereo not shown) [lisinopril, 1-(6-amino-2-(1-carboxy-3-phenyl-propyl)aminohexanoyl)pyrrolidine-2-carboxylic acid dihydrate]
[14]
  ER protein concentration: No such effects
  PR protein concentration: No such effects
  [3H]thymidine incorporation (an index of cell proliferation): No such effects
